Assay results published in patent publication US7517874B2 (priority 2007, dated 2009).

Columns and labels:
[1] = molecular target: human CB1 receptor (hCB1) (Homo sapiens, UniProt P21554); assay: cell-based; type: cell-based; details: for +/− HCB1: agonist or inverse agonist at hCB1
Method in brief: (§1)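 Readout: LANCE TR-FRET cAMP, back-calculated from a concurrent standard curve and scaled between forskolin-only and forskolin + 1 μM CP55,940 wells. EC50 and intrinsic activity came from four-parameter fits.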

rat CB2 receptor (rCB2) = molecular target: T1, rat CB2 receptor (rCB2) (Rattus norvegicus, UniProt Q9QZN9); assay: cell-based; type: cell-based; details: agonist or inverse agonist at rCB2
T1 sequence (Q9QZN9 1-360): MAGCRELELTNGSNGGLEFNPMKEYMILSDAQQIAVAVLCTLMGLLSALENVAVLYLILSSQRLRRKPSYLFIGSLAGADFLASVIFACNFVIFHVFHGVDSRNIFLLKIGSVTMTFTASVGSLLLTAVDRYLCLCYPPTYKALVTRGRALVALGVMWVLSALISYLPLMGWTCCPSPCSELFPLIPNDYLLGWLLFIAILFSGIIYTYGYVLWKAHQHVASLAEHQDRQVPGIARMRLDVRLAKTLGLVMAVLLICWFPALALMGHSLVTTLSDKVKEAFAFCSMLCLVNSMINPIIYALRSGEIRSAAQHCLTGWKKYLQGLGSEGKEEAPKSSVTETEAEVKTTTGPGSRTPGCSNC
Method in brief: as §1

Chain of human CB1 receptor (hCB1) (P21554 whole entry): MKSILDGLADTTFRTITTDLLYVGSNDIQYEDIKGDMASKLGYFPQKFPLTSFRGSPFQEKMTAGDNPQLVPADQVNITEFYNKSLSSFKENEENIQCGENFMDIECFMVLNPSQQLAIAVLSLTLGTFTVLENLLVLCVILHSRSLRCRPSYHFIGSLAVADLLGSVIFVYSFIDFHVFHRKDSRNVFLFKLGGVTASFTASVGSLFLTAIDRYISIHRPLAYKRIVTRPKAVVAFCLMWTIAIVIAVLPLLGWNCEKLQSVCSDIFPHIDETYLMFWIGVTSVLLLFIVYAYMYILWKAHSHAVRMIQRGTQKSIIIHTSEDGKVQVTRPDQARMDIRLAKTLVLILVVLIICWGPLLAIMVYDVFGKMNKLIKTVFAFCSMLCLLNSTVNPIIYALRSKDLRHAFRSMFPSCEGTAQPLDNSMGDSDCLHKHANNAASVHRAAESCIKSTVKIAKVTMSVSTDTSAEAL

SMILES	+/− HCB1 [1]	+/− RCB2 (rat CB2 receptor (rCB2))	EC50 [1] [µM]
CC(C)C[C@H](NC(=O)c1nc(-c2cc(Cl)ccc2F)n2c1CN(C)CCC2)C(N)=O [Compound 569, (S)-N-(1-amino-4-methyl-1-oxopentan-2-yl)-3-(5-chloro-2-fluorophenyl)-8-methyl-6,7,8,9-tetrahydro-5H-imidazo[1,5-a][1,4]diazepine-1-carboxamide]	+	+	–
CC(C)C[C@H](NC(=O)c1nc(C2CCCCC2)n2c1CN(C)CCC2)C(N)=O [Compound 570, (S)-N-(1-amino-4-methyl-1-oxopentan-2-yl)-3-cyclohexyl-8-methyl-6,7,8,9-tetrahydro-5H-imidazo[1,5-a][1,4]diazepine-1-carboxamide]	+	+	–
CC(C)C[C@H](NC(=O)c1nc(-c2cc(Cl)c(F)cc2F)n2c1CN(C)CCC2)C(N)=O [Compound 571, (S)-N-(1-amino-4-methyl-1-oxopentan-2-yl)-3-(5-chloro-2,4-difluorophenyl)-8-methyl-6,7,8,9-tetrahydro-5H-imidazo[1,5-a][1,4]diazepine-1-carboxamide]	+	+	–
CC(C)C[C@H](NC(=O)c1nc(-c2cc(F)c(F)cc2F)n2c1CN(C)CCC2)C(N)=O [Compound 572, (S)-N-(1-amino-4-methyl-1-oxopentan-2-yl)-8-methyl-3-(2,4,5-trifluorophenyl)-6,7,8,9-tetrahydro-5H-imidazo[1,5-a][1,4]diazepine-1-carboxamide]	+	+	–
CN1CCCn2c(-c3ccc(Cl)cc3F)nc(C(=O)N[C@H](C(N)=O)C(C)(C)C)c2C1 [Compound 573, (S)-N-(1-amino-3,3-dimethyl-1-oxobutan-2-yl)-3-(4-chloro-2-fluorophenyl)-8-methyl-6,7,8,9-tetrahydro-5H-imidazo[1,5-a][1,4]diazepine-1-carboxamide]	+	+	–
CN1CCCn2c(-c3cc(Cl)ccc3F)nc(C(=O)N[C@H](C(N)=O)C(C)(C)C)c2C1 [Compound 574, (S)-N-(1-amino-3,3-dimethyl-1-oxobutan-2-yl)-3-(5-chloro-2-fluorophenyl)-8-methyl-6,7,8,9-tetrahydro-5H-imidazo[1,5-a][1,4]diazepine-1-carboxamide]	+	+	–
CN1CCCn2c(-c3cc(F)ccc3F)nc(C(=O)N[C@H](C(N)=O)C(C)(C)C)c2C1 [Compound 575, (S)-N-(1-amino-3,3-dimethyl-1-oxobutan-2-yl)-3-(2,5-difluorophenyl)-8-methyl-6,7,8,9-tetrahydro-5H-imidazo[1,5-a][1,4]diazepine-1-carboxamide]	+	+	–
CN1CCCn2c(-c3ccc(F)c(Cl)c3)nc(C(=O)N[C@H](C(N)=O)C(C)(C)C)c2C1 [Compound 576, (S)-N-(1-amino-3,3-dimethyl-1-oxobutan-2-yl)-3-(3-chloro-4-fluorophenyl)-8-methyl-6,7,8,9-tetrahydro-5H-imidazo[1,5-a][1,4]diazepine-1-carboxamide]	+	+	–
CN1CCCn2c(-c3ccc(Cl)c(F)c3)nc(C(=O)N[C@H](C(N)=O)C(C)(C)C)c2C1 [Compound 577, (S)-N-(1-amino-3,3-dimethyl-1-oxobutan-2-yl)-3-(4-chloro-3-fluorophenyl)-8-methyl-6,7,8,9-tetrahydro-5H-imidazo[1,5-a][1,4]diazepine-1-carboxamide]	+	+	–
CN1CCCn2c(-c3ccc(F)cc3F)nc(C(=O)N[C@H](C(N)=O)C(C)(C)C)c2C1 [Compound 578, (S)-N-(1-amino-3,3-dimethyl-1-oxobutan-2-yl)-3-(2,4-difluorophenyl)-8-methyl-6,7,8,9-tetrahydro-5H-imidazo[1,5-a][1,4]diazepine-1-carboxamide]	+	+	–
CN1CCCn2c(-c3cc(F)c(F)cc3F)nc(C(=O)N[C@H](C(N)=O)C(C)(C)C)c2C1 [Compound 579, (S)-N-(1-amino-3,3-dimethyl-1-oxobutan-2-yl)-8-methyl-3-(2,4,5-trifluorophenyl)-6,7,8,9-tetrahydro-5H-imidazo[1,5-a][1,4]diazepine-1-carboxamide]	+	+	–
CN1CCCn2c(-c3cc(Cl)c(F)cc3F)nc(C(=O)N[C@H](C(N)=O)C(C)(C)C)c2C1 [Compound 580, (S)-N-(1-amino-3,3-dimethyl-1-oxobutan-2-yl)-3-(5-chloro-2,4-difluorophenyl)-8-methyl-6,7,8,9-tetrahydro-5H-imidazo[1,5-a][1,4]diazepine-1-carboxamide]	+	+	–
CN1CCCn2c(-c3ccc(F)c(F)c3)nc(C(=O)N[C@H](C(N)=O)C(C)(C)C)c2C1 [Compound 581, (S)-N-(1-amino-3,3-dimethyl-1-oxobutan-2-yl)-3-(3,4-difluorophenyl)-8-methyl-6,7,8,9-tetrahydro-5H-imidazo[1,5-a][1,4]diazepine-1-carboxamide]	+	+	–
CN1CCCn2c(-c3ccccc3)nc(C(=O)N[C@H](C(N)=O)C(C)(C)C)c2C1 [Compound 582]	–	+	> 10
CN1CCCn2c(-c3cc(F)ccc3F)nc(C(=O)N[C@@H](CC(C)(C)C)C(N)=O)c2C1 [Compound 583, (S)-N-(1-amino-4,4-dimethyl-1-oxopentan-2-yl)-3-(2,5-difluorophenyl)-8-methyl-6,7,8,9-tetrahydro-5H-imidazo[1,5-a][1,4]diazepine-1-carboxamide]	+	+	–
CN1CCCn2c(-c3ccc(Cl)cc3F)nc(C(=O)N[C@@H](CC(C)(C)C)C(N)=O)c2C1 [Compound 584, (S)-N-(1-amino-4,4-dimethyl-1-oxopentan-2-yl)-3-(4-chloro-2-fluorophenyl)-8-methyl-6,7,8,9-tetrahydro-5H-imidazo[1,5-a][1,4]diazepine-1-carboxamide]	+	+	–
CN1CCCn2c(-c3cc(Cl)ccc3F)nc(C(=O)N[C@@H](CC(C)(C)C)C(N)=O)c2C1 [Compound 585, (S)-N-(1-amino-4,4-dimethyl-1-oxopentan-2-yl)-3-(5-chloro-2-fluorophenyl)-8-methyl-6,7,8,9-tetrahydro-5H-imidazo[1,5-a][1,4]diazepine-1-carboxamide]	+	+	–
CN1CCCn2c(-c3ccc(F)c(F)c3)nc(C(=O)N[C@@H](CC(C)(C)C)C(N)=O)c2C1 [Compound 586, (S)-N-(1-amino-4,4-dimethyl-1-oxopentan-2-yl)-3-(3,4-difluorophenyl)-8-methyl-6,7,8,9-tetrahydro-5H-imidazo[1,5-a][1,4]diazepine-1-carboxamide]	+	+	–
CN1CCCn2c(-c3ccc(F)c(Cl)c3)nc(C(=O)N[C@@H](CC(C)(C)C)C(N)=O)c2C1 [Compound 587, (S)-N-(1-amino-4,4-dimethyl-1-oxopentan-2-yl)-3-(3-chloro-4-fluorophenyl)-8-methyl-6,7,8,9-tetrahydro-5H-imidazo[1,5-a][1,4]diazepine-1-carboxamide]	+	+	–
CN1CCCn2c(-c3ccc(Cl)c(F)c3)nc(C(=O)N[C@@H](CC(C)(C)C)C(N)=O)c2C1 [Compound 588, (S)-N-(1-amino-4,4-dimethyl-1-oxopentan-2-yl)-3-(4-chloro-3-fluorophenyl)-8-methyl-6,7,8,9-tetrahydro-5H-imidazo[1,5-a][1,4]diazepine-1-carboxamide]	+	+	–
CN1CCCn2c(-c3ccc(F)cc3F)nc(C(=O)N[C@@H](CC(C)(C)C)C(N)=O)c2C1 [Compound 589, (S)-N-(1-amino-4,4-dimethyl-1-oxopentan-2-yl)-3-(2,4-difluorophenyl)-8-methyl-6,7,8,9-tetrahydro-5H-imidazo[1,5-a][1,4]diazepine-1-carboxamide]	+	+	–
CN1CCCn2c(-c3cc(F)c(F)cc3F)nc(C(=O)N[C@@H](CC(C)(C)C)C(N)=O)c2C1 [Compound 590, (S)-N-(1-amino-4,4-dimethyl-1-oxopentan-2-yl)-8-methyl-3-(2,4,5-trifluorophenyl)-6,7,8,9-tetrahydro-5H-imidazo[1,5-a][1,4]diazepine-1-carboxamide]	+	+	–
CN1CCCn2c(-c3cc(Cl)c(F)cc3F)nc(C(=O)N[C@@H](CC(C)(C)C)C(N)=O)c2C1 [Compound 591, (S)-N-(1-amino-4,4-dimethyl-1-oxopentan-2-yl)-3-(5-chloro-2,4-difluorophenyl)-8-methyl-6,7,8,9-tetrahydro-5H-imidazo[1,5-a][1,4]diazepine-1-carboxamide]	+	+	–
